Experimental data taken from ChEMBL document CHEMBL1201862, “PubChem BioAssay data set” (2004).
The source made the active and inactive calls. Unless noted, no cut-off for these calls is given here.

Tests used:
[1] = biological target: T1, Peroxisome proliferator-activated receptor gamma (Homo sapiens, UniProt P37231); assay: PPARg partial agonists, dose response, cell-based, luminescence, assay provider (AID 504447); format: functional
[2] = biological target: T1, Peroxisome proliferator-activated receptor gamma; assay: PPARg ligand-binding domain binders, dose response, PPARg partial agonist project, biochemical, TR-FRET, LanthaScreen (AID 504446)
[3] = biological target: Peroxisome proliferator-activated receptor alpha (Homo sapiens, UniProt Q07869); assay: Late stage assay provider counterscreen for partial agonists of the peroxisome proliferator-activated receptor gamma (PPARg): Luminescence-based cell-based dose response assay for partial agonists of the peroxisome proliferator-activated receptor alpha (PPARA). [Related pubchem assays (depositor defined):AID1051, AID1300, AID1319, AID1679, AID1808, AID504446, AID504447, AID504452, AID504453, AID631]; format: functional
[4] = biological target: Runt-related transcription factor 1/Core-binding factor subunit beta (Homo sapiens, UniProt Q01196+Q13951); assay: Confirmation of compounds inhibiting the binding between the RUNX1 Runt domain and CBFb-SMMHC via a fluorescence resonance energy transfer (FRET) assay. [Related pubchem assays (depositor defined):AID1434, AID1438, AID1496, AID1550, AID1645]; format: protein assay
[5] = biological target: Induced myeloid leukemia cell differentiation protein Mcl-1 (Homo sapiens, UniProt Q07820); format: functional
[6] = biological target: T2, Voltage-gated N-type calcium channel alpha-1B subunit/Amyloid beta A4 precursor protein-binding family A member 1 (Homo sapiens, UniProt Q00975+Q02410); format: protein assay
T2 sequence (Q00975 whole entry): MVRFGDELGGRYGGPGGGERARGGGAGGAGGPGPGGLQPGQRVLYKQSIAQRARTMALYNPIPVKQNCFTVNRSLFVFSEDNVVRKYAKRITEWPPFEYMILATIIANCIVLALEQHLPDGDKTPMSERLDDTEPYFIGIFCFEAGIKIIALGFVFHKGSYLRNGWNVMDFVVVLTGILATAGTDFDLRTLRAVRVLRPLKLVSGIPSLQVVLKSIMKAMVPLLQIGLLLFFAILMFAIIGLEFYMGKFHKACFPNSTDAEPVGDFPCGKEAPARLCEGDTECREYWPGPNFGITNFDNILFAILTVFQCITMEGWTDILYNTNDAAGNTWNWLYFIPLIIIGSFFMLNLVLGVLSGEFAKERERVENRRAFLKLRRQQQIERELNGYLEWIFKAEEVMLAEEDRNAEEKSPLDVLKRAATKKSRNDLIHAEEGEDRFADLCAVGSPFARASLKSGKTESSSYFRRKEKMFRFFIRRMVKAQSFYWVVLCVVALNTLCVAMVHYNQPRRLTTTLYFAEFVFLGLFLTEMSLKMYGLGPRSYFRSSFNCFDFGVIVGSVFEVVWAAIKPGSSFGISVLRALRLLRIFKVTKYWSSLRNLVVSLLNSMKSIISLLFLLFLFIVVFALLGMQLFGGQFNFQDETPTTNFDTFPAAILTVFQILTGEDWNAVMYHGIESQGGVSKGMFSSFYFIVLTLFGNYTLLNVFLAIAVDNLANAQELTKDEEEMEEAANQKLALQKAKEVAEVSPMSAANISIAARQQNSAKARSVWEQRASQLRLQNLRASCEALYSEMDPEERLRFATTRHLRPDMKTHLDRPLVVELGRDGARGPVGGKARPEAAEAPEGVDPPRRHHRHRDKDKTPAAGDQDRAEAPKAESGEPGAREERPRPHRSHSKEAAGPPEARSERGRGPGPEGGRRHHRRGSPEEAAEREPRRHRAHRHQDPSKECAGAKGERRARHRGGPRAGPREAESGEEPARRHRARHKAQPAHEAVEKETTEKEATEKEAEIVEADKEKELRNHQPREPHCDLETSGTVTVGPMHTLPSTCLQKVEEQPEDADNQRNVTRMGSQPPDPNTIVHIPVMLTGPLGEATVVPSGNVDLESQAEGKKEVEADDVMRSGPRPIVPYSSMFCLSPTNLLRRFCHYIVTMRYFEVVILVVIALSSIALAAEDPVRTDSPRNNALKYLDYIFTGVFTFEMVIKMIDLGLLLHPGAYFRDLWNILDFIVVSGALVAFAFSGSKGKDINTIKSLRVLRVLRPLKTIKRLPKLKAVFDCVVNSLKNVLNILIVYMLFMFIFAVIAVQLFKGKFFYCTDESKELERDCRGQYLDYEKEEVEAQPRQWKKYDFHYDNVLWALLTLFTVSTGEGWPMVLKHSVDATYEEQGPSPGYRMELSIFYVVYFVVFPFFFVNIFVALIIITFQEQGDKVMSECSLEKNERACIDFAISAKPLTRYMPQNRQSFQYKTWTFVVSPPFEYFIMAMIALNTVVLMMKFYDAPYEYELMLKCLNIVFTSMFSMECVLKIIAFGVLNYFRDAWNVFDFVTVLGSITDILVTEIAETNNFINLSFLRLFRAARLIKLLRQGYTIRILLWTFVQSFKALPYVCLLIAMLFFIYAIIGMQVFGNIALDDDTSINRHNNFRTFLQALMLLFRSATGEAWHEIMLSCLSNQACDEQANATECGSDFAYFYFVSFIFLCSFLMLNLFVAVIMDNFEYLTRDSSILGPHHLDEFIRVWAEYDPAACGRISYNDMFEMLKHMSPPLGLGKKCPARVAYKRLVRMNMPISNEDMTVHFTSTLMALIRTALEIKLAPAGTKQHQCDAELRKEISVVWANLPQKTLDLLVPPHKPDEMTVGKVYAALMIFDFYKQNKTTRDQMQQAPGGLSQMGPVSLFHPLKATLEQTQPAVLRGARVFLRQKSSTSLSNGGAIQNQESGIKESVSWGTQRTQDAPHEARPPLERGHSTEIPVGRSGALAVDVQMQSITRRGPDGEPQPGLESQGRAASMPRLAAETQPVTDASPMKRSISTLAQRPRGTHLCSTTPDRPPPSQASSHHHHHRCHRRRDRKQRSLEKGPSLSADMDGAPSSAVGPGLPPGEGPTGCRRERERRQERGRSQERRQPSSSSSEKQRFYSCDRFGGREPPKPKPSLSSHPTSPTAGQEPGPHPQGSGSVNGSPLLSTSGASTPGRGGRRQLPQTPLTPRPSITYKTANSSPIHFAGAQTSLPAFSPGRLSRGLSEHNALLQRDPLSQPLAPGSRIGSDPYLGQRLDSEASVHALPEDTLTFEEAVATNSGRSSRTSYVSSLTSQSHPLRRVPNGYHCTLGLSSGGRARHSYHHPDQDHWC
T2 sequence (Q02410 whole entry): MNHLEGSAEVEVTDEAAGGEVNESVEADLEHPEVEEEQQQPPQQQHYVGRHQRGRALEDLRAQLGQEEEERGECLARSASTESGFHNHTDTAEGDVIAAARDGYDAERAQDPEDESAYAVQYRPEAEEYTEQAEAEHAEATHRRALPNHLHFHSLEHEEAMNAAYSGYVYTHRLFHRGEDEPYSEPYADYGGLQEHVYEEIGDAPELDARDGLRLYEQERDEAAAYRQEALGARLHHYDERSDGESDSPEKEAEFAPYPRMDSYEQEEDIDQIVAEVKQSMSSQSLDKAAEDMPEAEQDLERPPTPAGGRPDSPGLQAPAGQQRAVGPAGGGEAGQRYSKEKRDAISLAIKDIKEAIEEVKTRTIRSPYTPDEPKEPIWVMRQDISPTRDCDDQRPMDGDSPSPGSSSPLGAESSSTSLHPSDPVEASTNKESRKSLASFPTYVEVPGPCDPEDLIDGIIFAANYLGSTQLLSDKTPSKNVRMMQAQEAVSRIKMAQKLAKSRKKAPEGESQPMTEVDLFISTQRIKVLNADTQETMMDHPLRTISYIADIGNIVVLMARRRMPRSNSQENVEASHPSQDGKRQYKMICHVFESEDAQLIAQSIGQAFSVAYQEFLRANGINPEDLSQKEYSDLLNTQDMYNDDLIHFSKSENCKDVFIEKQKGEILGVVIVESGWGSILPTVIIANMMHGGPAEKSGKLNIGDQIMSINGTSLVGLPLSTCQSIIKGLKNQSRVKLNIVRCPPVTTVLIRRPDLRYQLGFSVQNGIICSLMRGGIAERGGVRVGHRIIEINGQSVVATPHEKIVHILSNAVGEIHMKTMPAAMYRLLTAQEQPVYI

[7] = biological target: T3, Hexokinase-1 (Homo sapiens, UniProt P19367); assay: hexokinase 1 activators, dose response, selectivity assay for HKDC1 activator project, biochemical (AID 504762); format: functional
T3 sequence (P19367 whole entry): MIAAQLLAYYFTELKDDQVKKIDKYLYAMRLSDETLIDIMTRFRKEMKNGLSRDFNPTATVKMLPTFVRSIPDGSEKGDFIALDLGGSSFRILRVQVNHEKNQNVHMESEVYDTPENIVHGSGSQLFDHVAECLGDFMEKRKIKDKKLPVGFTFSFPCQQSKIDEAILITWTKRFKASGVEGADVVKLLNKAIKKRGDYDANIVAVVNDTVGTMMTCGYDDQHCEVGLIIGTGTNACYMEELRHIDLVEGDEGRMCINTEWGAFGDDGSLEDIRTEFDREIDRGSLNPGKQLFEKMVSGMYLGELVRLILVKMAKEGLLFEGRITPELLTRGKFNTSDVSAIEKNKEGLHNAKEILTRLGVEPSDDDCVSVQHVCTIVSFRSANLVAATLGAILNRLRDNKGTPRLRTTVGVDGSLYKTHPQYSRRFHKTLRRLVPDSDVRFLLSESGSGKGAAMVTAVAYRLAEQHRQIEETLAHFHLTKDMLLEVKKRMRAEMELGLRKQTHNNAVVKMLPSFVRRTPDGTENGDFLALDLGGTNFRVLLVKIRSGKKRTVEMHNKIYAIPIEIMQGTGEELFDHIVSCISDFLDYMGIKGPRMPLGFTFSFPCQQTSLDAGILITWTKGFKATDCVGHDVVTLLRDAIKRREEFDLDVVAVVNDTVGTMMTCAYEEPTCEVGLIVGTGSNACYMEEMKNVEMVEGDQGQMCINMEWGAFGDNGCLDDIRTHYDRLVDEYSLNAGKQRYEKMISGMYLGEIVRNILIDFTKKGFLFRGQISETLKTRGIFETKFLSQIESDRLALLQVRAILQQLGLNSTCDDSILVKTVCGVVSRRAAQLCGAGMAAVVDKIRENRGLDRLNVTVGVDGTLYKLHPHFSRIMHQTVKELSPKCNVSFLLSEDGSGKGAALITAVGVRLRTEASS

[8] = biological target: T2, Voltage-gated N-type calcium channel alpha-1B subunit/Amyloid beta A4 precursor protein-binding family A member 1; format: protein assay; remark: listed apart in the source
[9] = biological target: T4, Hexokinase HKDC1 (Homo sapiens, UniProt Q2TB90); assay: HKDC1 hexokinase activators, dose response, biochemical, W721R variant (AID 504730); format: functional
T4 sequence (Q2TB90 whole entry): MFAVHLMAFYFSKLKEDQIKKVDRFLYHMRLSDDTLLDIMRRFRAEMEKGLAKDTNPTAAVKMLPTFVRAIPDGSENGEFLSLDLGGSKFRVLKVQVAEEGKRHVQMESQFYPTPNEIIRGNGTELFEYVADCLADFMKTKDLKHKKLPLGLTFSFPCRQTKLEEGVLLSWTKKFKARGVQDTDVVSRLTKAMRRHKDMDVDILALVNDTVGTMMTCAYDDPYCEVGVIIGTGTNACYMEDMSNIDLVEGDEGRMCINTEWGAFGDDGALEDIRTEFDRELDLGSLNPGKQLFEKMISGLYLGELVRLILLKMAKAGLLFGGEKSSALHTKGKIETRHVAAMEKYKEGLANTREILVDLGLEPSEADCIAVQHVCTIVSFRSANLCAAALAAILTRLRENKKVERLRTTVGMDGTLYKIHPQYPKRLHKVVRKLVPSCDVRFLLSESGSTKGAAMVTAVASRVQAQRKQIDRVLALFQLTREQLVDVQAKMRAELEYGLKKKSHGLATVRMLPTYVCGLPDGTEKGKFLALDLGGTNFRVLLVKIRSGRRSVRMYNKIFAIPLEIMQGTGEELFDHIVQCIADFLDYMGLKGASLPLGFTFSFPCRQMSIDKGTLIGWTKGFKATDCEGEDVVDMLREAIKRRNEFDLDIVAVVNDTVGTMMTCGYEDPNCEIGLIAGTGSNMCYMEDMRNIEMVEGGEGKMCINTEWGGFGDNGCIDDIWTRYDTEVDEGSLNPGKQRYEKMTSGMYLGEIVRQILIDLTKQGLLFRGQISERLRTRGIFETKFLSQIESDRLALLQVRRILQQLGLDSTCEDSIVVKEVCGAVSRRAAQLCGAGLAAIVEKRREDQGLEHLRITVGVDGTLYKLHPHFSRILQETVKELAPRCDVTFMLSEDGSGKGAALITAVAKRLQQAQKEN

[10] = biological target: T5, Sphingosine 1-phosphate receptor 4 (Homo sapiens, UniProt O95977); assay: S1P4 receptor agonists, human, late-stage follow-up, cell-based, fluorescence, synthesized compounds (AID 463107); format: functional
T5 sequence (O95977 whole entry): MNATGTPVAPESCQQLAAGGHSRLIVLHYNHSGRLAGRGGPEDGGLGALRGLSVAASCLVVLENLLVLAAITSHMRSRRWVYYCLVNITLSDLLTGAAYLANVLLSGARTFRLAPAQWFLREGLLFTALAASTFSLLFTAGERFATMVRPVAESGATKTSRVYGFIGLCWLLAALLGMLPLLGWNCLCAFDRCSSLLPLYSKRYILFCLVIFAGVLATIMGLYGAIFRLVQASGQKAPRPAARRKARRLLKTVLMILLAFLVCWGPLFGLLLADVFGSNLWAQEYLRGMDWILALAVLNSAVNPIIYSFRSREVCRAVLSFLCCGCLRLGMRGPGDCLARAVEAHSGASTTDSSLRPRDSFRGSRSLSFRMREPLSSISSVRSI

[11] = biological target: Sphingosine 1-phosphate receptor 3 (Homo sapiens, UniProt Q99500); assay: Late-stage fluorescence-based dose-response cell-based assay to identify agonists of the Sphingosine 1-Phosphate Receptor 4 (S1P4): Sphingosine 1-Phosphate Receptor 3 (S1P3) counterscreen assay. [Related pubchem assays (depositor defined):AID1509, AID1523, AID1563, AID1686, AID1701, AID1801, AID463107, AID463225, AID504400]; format: functional
Chain of Sphingosine 1-phosphate receptor 3 (Q99500 whole entry): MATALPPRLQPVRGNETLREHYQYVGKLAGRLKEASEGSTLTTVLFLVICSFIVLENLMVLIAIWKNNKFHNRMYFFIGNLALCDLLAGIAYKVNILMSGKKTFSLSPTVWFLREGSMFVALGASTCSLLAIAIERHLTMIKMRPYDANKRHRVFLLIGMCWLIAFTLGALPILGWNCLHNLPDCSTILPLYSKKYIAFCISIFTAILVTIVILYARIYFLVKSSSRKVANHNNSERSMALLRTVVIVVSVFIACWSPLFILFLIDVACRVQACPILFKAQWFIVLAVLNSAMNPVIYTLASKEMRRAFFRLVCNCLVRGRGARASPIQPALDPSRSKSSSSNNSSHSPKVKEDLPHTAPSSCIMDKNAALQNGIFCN

[12] = biological target: Sphingosine 1-phosphate receptor 1 (Homo sapiens, UniProt P21453); assay: Late-stage fluorescence-based dose-response cell-based assay to identify agonists of the Sphingosine 1-Phosphate Receptor 4 (S1P4): Sphingosine 1-Phosphate Receptor 1 (S1P1) counterscreen assay. [Related pubchem assays (depositor defined):AID1509, AID1523, AID1563, AID1686, AID1701, AID1801, AID463107, AID463225, AID504400]; format: functional
[13] = biological target: Sphingosine 1-phosphate receptor 5 (Homo sapiens, UniProt Q9H228); assay: Late-stage fluorescence-based dose-response cell-based assay to identify agonists of the Sphingosine 1-Phosphate Receptor 4 (S1P4): Sphingosine 1-Phosphate Receptor 5 (S1P5) counterscreen assay. [Related pubchem assays (depositor defined):AID1509, AID1523, AID1563, AID1686, AID1701, AID1801, AID463107, AID463225, AID504400]; format: functional
[14] = biological target: Sphingosine 1-phosphate receptor 2 (Homo sapiens, UniProt O95136); assay: Late-stage fluorescence-based dose-response cell-based assay to identify agonists of the Sphingosine 1-Phosphate Receptor 4 (S1P4): Sphingosine 1-Phosphate Receptor 2 (S1P2) counterscreen assay. [Related pubchem assays (depositor defined):AID1509, AID1523, AID1563, AID1686, AID1701, AID1801, AID463107, AID463225, AID504400]; format: functional
Chain of Sphingosine 1-phosphate receptor 2 (O95136 whole entry): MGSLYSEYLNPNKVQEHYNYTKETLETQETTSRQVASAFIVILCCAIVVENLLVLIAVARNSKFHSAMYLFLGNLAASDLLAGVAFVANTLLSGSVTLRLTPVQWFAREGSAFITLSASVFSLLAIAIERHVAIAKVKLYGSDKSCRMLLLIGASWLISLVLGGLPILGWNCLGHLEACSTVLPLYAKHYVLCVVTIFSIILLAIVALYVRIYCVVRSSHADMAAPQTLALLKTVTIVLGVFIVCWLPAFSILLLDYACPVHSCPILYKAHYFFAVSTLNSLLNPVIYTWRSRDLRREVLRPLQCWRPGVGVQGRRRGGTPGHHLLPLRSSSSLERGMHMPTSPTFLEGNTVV

[15] = biological target: T6, Zinc finger protein mex-5 (Caenorhabditis elegans, UniProt Q9XUB2); assay: MEX-5/TCR-2 RNA interaction inhibitors, dose response, biochemical, C. elegans, fluorescence polarization (AID 1960)
T6 sequence (Q9XUB2 whole entry): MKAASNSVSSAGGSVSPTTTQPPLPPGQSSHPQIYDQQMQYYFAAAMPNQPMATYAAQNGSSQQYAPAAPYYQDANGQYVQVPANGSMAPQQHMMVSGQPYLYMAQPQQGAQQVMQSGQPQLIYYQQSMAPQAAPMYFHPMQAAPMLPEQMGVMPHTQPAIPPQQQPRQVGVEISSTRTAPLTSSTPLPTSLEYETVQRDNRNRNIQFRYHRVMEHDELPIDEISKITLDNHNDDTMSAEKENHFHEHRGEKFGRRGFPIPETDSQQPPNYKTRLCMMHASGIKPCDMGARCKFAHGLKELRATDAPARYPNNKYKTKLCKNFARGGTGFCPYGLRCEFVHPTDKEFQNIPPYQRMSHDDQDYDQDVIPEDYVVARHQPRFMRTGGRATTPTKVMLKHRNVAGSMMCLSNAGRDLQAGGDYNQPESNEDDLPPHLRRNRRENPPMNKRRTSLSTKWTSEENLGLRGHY

[16] = biological target: T7, RNA-binding protein pos-1 (Caenorhabditis elegans, UniProt G5EF15); assay: inhibitors of POS-1/mex-3 RNA binding, dose response, biochemical, fluorescence polarization (AID 1964);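 note: purified POS-1 fused to maltose binding protein made in E. coli; potency of compounds blocking POS-1 binding to fluorescent RNA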
T7 sequence (G5EF15 whole entry): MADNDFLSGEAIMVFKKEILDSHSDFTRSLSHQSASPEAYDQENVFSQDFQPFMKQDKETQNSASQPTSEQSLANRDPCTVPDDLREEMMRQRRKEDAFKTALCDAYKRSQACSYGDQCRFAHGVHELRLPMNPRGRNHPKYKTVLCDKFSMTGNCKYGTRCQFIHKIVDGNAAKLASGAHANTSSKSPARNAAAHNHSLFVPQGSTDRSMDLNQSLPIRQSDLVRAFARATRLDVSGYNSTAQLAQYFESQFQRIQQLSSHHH

[17] = biological target: Intestinal-type alkaline phosphatase (Homo sapiens, UniProt P09923); assay: activation of human intestinal alkaline phosphatase – biochemical, dose response (AID 488873); format: functional
[18] = biological target: Intestinal-type alkaline phosphatase (Mus musculus, UniProt P24822); assay: PubChem AID 488785; format: functional
Chain of Intestinal-type alkaline phosphatase (Mus musculus, UniProt P24822) (P24822 whole entry): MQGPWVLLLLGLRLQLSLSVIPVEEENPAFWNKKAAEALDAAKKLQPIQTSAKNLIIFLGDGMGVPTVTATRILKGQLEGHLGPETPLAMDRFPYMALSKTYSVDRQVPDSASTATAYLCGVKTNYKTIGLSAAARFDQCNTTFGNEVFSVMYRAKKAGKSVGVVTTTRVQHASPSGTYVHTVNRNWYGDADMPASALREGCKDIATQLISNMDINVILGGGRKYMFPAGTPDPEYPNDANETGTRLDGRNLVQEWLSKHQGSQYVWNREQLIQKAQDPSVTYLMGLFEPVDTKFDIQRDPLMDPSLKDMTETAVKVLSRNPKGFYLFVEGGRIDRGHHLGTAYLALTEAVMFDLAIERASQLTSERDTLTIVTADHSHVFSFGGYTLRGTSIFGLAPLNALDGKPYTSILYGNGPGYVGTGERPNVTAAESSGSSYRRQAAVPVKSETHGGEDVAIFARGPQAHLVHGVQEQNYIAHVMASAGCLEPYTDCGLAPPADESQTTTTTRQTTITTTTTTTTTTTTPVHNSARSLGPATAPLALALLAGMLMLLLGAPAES

[19] = biological target: T8, Alkaline phosphatase, tissue-nonspecific isozyme (Homo sapiens, UniProt P05186); assay: TNAP enzyme inhibition by screening hits, dose response, selectivity assay for mouse IAP inhibitor project, biochemical, human TNAP, uHTS hits (AID 488906); format: functional
T8 sequence (P05186 whole entry): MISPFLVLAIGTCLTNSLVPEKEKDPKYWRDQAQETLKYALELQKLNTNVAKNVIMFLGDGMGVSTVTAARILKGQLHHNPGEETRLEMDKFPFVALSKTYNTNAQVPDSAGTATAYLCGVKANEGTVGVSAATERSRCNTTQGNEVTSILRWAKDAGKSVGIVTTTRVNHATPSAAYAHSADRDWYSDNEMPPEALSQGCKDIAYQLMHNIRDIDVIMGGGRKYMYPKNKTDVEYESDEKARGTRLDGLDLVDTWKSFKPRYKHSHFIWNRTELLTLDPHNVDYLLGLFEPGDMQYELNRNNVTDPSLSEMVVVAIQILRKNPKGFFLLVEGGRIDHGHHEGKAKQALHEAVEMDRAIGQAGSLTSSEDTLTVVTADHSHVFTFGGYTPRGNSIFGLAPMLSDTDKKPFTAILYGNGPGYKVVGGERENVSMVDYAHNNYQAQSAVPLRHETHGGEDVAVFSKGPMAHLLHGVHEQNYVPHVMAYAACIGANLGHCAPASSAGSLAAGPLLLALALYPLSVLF

T1 sequence (P37231 whole entry, the tested form may be a part): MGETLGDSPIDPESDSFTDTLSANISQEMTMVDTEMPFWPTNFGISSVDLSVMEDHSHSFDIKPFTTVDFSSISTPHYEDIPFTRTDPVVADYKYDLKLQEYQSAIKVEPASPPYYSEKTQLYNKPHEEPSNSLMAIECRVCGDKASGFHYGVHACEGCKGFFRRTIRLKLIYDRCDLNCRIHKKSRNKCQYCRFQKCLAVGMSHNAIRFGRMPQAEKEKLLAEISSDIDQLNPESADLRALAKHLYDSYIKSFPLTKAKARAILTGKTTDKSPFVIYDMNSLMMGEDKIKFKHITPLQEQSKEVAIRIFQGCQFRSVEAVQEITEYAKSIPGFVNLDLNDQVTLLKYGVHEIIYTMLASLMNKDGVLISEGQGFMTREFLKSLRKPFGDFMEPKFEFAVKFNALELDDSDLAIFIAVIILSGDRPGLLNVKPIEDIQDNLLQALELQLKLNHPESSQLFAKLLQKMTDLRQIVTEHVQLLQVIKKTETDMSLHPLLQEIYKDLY

O=C(O)CCN1C(=O)/C(=C\c2cccc(OCc3ccccc3)c2)SC1=S
EC50 [1]: 1.5 µM (active) | IC50 [2]: 0.276 µM (active) | EC50 [3]: > 3 µM (inactive)

CCc1ccc(S(=O)(=O)Nc2ccc(-c3nc4cccnc4s3)cc2)s1
IC50 [4]: > 100 µM (inactive)

CC(=O)Nc1ccc(C2=NN=C(Nc3ccc(S(=O)(=O)N4CCOCC4)cc3)SC2)cc1
IC50 [5]: 1.61 µM (active) | IC50 [6]: 13.8 µM (active) | EC50 [7]: 7.65 µM (active) | IC50 [8]: > 50 µM (inactive) | EC50 [9]: 7.92 µM (active)

C/N=C1\SC(=Cc2cc(C)n(Cc3c(F)cccc3F)c2C)C(=O)N1OC
EC50 [10]: 0.0886 µM (active) | EC50 [11]: > 50 µM (inactive) | EC50 [12]: 0.113 µM (active) | EC50 [13]: 0.339 µM (active) | EC50 [14]: > 50 µM (inactive)

O=C(O)Cc1ccc(O)c(O)c1 [3,4-DIHYDROXYPHENYLACETIC ACID]
EC50 [15]: 28.9 µM (active) | EC50 [16]: 49.8 µM (active) | EC50 [17]: > 100 µM (inactive) | IC50 [18]: 4.17 µM (active) | IC50 [19]: > 100 µM (inactive)
